Test results reported in patent US20070086981A1, “Delivery peptides, their constructs with active agents and use” (priority 2003, published 2007).

Test system: human skin
Assay: Clinical study with a cream for skincare against skin aging
Type: in vivo, humans
Settings: comparison of skin creams in the clinical study
Protocol: A cream base was used having the following ingredients:
The huSOD-peptide OA 05 conjugate was produced as described in example 4.
The following compositions of skin cream were prepared for use in the clinical study:
The properties were evaluated according the following criteria: “firmness of the skin”, “reduction of superficial wrinkles”, “reduction of deeper wrinkles”, “skin regeneration”, and “appearance of young skin”. The questionnaire was filled out at least 4 weeks after starting of using the skin cream.
The application of the skin cream was done in all Groups (I to V) over 6 weeks twice a day, creaming the face and the neck in the morning and in the evening without using any other skin products. No application was discontinued in any group. The observation period (counted from the first application) was minimum 4 weeks and maximum 10 weeks.
Furthermore, a total evaluation of the different applied skin creams on a score ranging from 1 (excellent) to 6 (very poor) was performed.

| Substance | beneficial effect on aging parameters in the human skin |
| --- | --- |
| KKKQKRKK (Cargo Peptide) [OA 05] | significantly increases the beneficial effect of SOD |
| SOD: Super-Oxid- Dismutase (SOD), a free radical catcher; huSOD from Jena Biosciences | has a beneficial effect on different aging parameters in the human skin |
